Where two headings read alike, the source gives them in different places.
Legend:
lung inflammation = assay: Histological analysis of lung inflammation (H&E), OVA mouse model; assay type: in vivo, BALB/c mice
Method: (§1) Mice were sensitized with 0.2 ml PBS containing 50 μg ovalbumin (OVA) (Sigma, USA) and 4 mg aluminum hydroxide in saline intraperitonially (i.p.) on days 0, 7 and 14 as shown in FIG. 1. Sham group mice were sensitized with only alum dissolved in PBS. From day 18 to 27, mice were exposed to aerosol of OVA (3%) inhalation 25 minutes daily in a Plexiglas chamber (20×20×10 cm^3). The aerosol was generated by a nebulizer (OMRON CX model) with an airflow rate of 9 L/minute. Sham group mice were challenged with PBS alone.
(§2) Compound 1 of formula I was dissolved in 50% ethanol. So 50% ethanol was used as a vehicle. Group I was alum sensitized, saline challenged and treated with vehicle (SHAM/SAL/VEH), group II was OVA sensitized, OVA challenged and treated with 50% ethanol as vehicle (OVA/OVA/VEH), group III, IV, V, VI were OVA sensitized, OVA challenged and treated with 0.05, 0.1, 5 and 10 mg/kg compound 1 of formula I. Drug was given in the volume of 10 μl orally twice per day. Confirmatory experiments were done with two concentrations of compound 1 of formula I (5 and 10 mg/kg twice a day), and these findings were compared with parallel group of mice which were OVA-sensitized, -OVA challenged and treated orally once a day with 0.75 mg/kg Dexamethasone (OVA/OVA/DEX).
The excised lung portion was fixed in 10% buffered formalin. […]

IL-4 [1] = assay: PHA-stimulated human PBMC, IL-4 in supernatant by Cytometric Bead Array; assay type: cell-based; settings: PHA 10 μg/ml, read-out: IC50 inhibitory activity, stimulation-induced IL-4
Method: (§3) Normal human peripheral blood mononuclear cells (PBMC) were stimulated with phytohemagglutinin (PHA) 10 μg/ml in the presence and absence of varying concentrations of compounds of formula I and II. Culture supernatants were harvested and IIL-4 and IL-5 cytokines were quantitated by Cytometric Bead Array (CBA™) kit (Becton Dickinson, USA) following manufacturers instructions using a Flow Cytometer (BD LSR, Becton Dickinson) and CBA™ analysis software (Becton Dickinson).

hepatocarcinoma cells = settings: cited from earlier work
[2] = 14 d acute oral toxicity: observations, body weight, organ weight, necropsy; assay type: in vivo, mice
Method: (§4) 14 d acute oral toxicity of compound 1 of formula I was performed. Three doses were selected: 47, 23, 12 and 0 mg/kg bw (Vehicle control) of compound 1 of formula I was administered by single oral gavage using blunt ended steel canula.

IL-4 [3] = assay: IL-4 levels in lung homogenates by ELISA, OVA mouse model; assay type: in vivo, BALB/c mice; settings: for IL-4 levels in lung: 10 mg/kg vs OVA/OVA/VEH
Method: as §1, §2
OVA-specific IgE levels in sera were measured by enzyme linked immunosorbent assay (ELISA) as described previously with little modification (Inflam. Res. 2003, 52, 101-106). Absorbance values at 450 nm were converted to arbitrary values by multiplying with 100. IL-4 levels in lung homogenates were measured by ELISA method as per manufacturer's instructions (BD Pharmingen, USA). Lung homogenates were prepared by homogenizing the lung tissue (approximately 100 mg) with 1 ml PBS followed by centrifugation at 10000 g for 30 min at 4° C. Results were expressed in pg/50 μg protein. Protein estimation was done by BCA method.

[4] = mouse, in vivo
Method: (§5) Earlier, LD50 of ICB 14 C6 was derived from in vitro cytotoxicity assay by NRUmethod in 3T3 cells. […] For 90d sub-chronic toxicity study the highest dose selected was one-fourth of the limit dose. Four different doses of ICB14 C6 (47, 23, 12 and 0 [vehicle] mg/kg body weight) were prepared in ground nut oil daily for 5 days a week for 90d.
Blood samples were taken from the retro-orbital sinus on day 91 for hematological and clinical chemistry analyses. Clinical analysis included serum creatinine, serum gammaGT, serum uric acid, serum glucose, serum protein, serum bilirubin, serum GOT/AST and serum GPT/ALT. Hematology including white blood cell count was analyzed with the help of Automatic Hematology Analyzer (Medonic).
Before sacrifice, blood was drawn from the retro-orbital sinus of mice with the help of heparinised capillary tubes and hematological parameters were assessed with the help of Automatic Hematology Analyzer (Medonic CA535).

IL-5 = assay: PHA-stimulated human PBMC, IL-5 in supernatant by Cytometric Bead Array; assay type: cell-based; settings: PHA 10 μg/ml, read-out: IC50 inhibitory activity, stimulation-induced IL-5
Method: as §3

[5] = parameters: species or system mice; settings: mouse, in vivo
Method: as §4
Clinical biochemistry was performed using detection kit purchased from SPINREACT, SA, Spain. The blood left after the hematological studies were allowed to clot for 2 h and serum separated by centrifugation at 3000 rpm for 5 min and subsequently used for clinical biochemistry. Details of the clinical biochemistry (Table 4) and relative organ weight (Table 5) are given below.

[6] = mouse, in vivo; remark: listed apart in the source
Method: as §5
After 90d of oral treatment with ICB3001, 3 mice in each group were sacrificed and major organs were placed in 10% formalin to prepare histological slides. The slides were stained by haematoxylin-eosin dye.

## C=CCc1ccc(O)c(O)c1 [Compound 1, 4-allyl-benzene-1,2-diol]
Lung inflammation; 5 mg/kg
  lung inflammation (H&E): mild reduction of inflammation
Lung inflammation; 10 mg/kg
  lung inflammation (H&E): a significant reduction in both peribronchial and perivascular inflammation
IL-4 [1]
  IC50: 5 µM
Hepatocarcinoma cells
  cell cycle arrest and apoptosis: induce cell cycle arrest and apoptosis
[2]; mice
  acute oral (level) established from body weight, organ weight, necropsy, immunotoxicity, hematology, clinical chemistry, cage side observation: 23 mg/kg
[2]; mouse, in vivo
  necropsy findings in vital organs: no gross or microscopic lesion
[2]; mouse, in vivo, po
  clinical signs on day of administration: transient symptoms of restlessness and rapid rate of respiration that persisted for 30 minutes post administration
  feed and water consumption: comparable to vehicle control group
[2]; single oral 47, 23 and 12 mg/kg bw
  morbidity and/or mortality: did not result in any morbidity and/or mortality
IL-4 [3]; 10 mg/kg
  reduction of lung IL-4 compared to DEX treated mice: approx. 65%
IL-4 [3]
  IL-4 levels in lung: a decrease in the IL-4 levels
IL-4 [3]; listed as compound of formula I
  IL-4 levels in lung: a significant reduction in the IL-4 levels
[4]
  Hemoglobin, RBC and WBC counts vs normal range: within the normal range
  platelet counts vs normal range: below the normal range
[4]; 12 mg/kg
  HGB: 13.76 ± 0.55 g/dL
  PLT: 272 ± 93 ×10^3/mm^3
  RBC: 10.07 ± 0.67 ×10^6/mm^3
  WBC: 8.66 ± 1.27 ×10^3/mm^3
[4]; 23 mg/kg
  HGB: 13.85 ± 0.35 g/dL
  PLT: 306 ± 106 ×10^3/mm^3
  RBC: 9.82 ± 0.014 ×10^6/mm^3
  WBC: 10.85 ± 2.11 ×10^3/mm^3
[4]; 47 mg/kg
  HGB: 12.13 ± 0.57 g/dL
  PLT: 319 ± 120 ×10^3/mm^3
  RBC: 8.51 ± 0.323 ×10^6/mm^3
  WBC: 10.16 ± 1.03 ×10^3/mm^3
IL-5; Homo sapiens
  IC50: 4.5 µM
IL-5
  IC50: 5 µM
[5]
  serum bilirubin vs normal range: marginal rise in the serum bilirubin
[5]; 12 mg/kg
  Acid phosphatase: 2.98 ± 1.2
  Bilirubin: 0.28 ± 0.30 mg/dL
  Glucose: 49 ± 0.193 mg/dL
  SGOT: 4.32 ± 1.87 U/L
  SGPT: 8.42 ± 5.8 U/L
  Uric acid: 5.89 ± 1.6 mg/dL
  gammaGT: 1.78 ± 0.68 U/L
[5]; 23 mg/kg
  Acid phosphatase: 2.75 ± 0.74
  Bilirubin: 0.19 ± 0.22 mg/dL
  Glucose: 57 ± 0.12 mg/dL
  SGOT: 8.64 ± 3.74 U/L
  SGPT: 12.15 ± 5.50 U/L
  Uric acid: 7.51 ± 4.13 mg/dL
  gammaGT: 2.38 ± 1.19 U/L
[5]; 47 mg/kg
  Acid phosphatase: 2.06 ± 1.52
  Bilirubin: 1.41 ± 0.3 mg/dL
  Glucose: 58 ± 0.07 mg/dL
  SGOT: 3.24 ± 2.91 U/L
  SGPT: 10.8 ± 23^ U/L
  Uric acid: 5.59 ± 2.67 mg/dL
  gammaGT: 2.38 ± 0.97 U/L
[6]
  heart histology: no significant changes in the histo-architecture
  kidney histology: no significant changes were observed
  liver histology: no change in the structure of hepatic cells
[6]; 47 mg/kg
  lung histology: slight thickening of intercellular septum and migration of polymorphonuclear lymphocytes

— patent publication US9302967B2, “Substituted cathechols as inhibitors of IL-4 and IL-5 for the treatment of bronchial asthma” (Council of Scientific & Industrial Research, priority 2011, dated 2016)
